What was measured:
Type in all cases: in vivo
[1] = tested on: nitrite/nitrate (NOx); test: Nitrite/nitrate level in blood, rats with gastric injury without inflammation; conditions: 1.11 mmol/kg, vs control group H, FIG. 25
Procedure: The levels of plasma nitrite/nitrate (NOx), stable end products of NO were measured by the Griess reaction. This assay depends on the reduction of nitrate to nitrite, which is then converted into a colored azo dye compound that is detected spectrophotometrically at 540 nm.
Further experiments regarding the effect of a compound of formula (I) and a pharmaceutical composition comprising a compound of formula (I), respectively, on gastric injury without inflammation were conducted on rats. 15 animals were randomly allocated into three groups. Group H (n=5) served as sham-operated controls. Samples of all animals were drawn on day 1 of the clinical tests. On day 2 the animals of group I (n=5) were force-fed acetylsalicylic acid (ASS) (1.11 mmol/kg body weight). Group K (n=5) was force-fed 1.11 mmol/kg body weight of the compound according to the invention. Group H only received the respective solvent (25% ethanol in water). One day after the gavage, additional samples were drawn. Fluorescence confocal endomicroscopy was performed to examine the microvasculature and morphologic changes of the mucosa of the distal colon, and full-thickness tissue samples and venous blood samples were taken to determine the biochemical changes in the colon and plasma. The effects were determined by way of measurement of body weight, blood gas analysation and biopsy. […]

[2] = Haematocrit in blood, rats with TNBS-induced colitis; conditions: 1.11 mmol/kg, vs groups L and M, FIG. 28
Procedure: (§1) Colonic inflammation was induced by intracolonic administration of TNBS (2,4,6-trinitrobenzenesulfonic acid) (40 mg/kg in 0.25 ml of 25% aqueous ethanol) through an 8-cm-long soft plastic catheter under transient diethylether anesthesia. In the sham-operated groups, only the vehicle for TNBS was administered. The animals were deprived of food, but not water, for 12 h before the enemas.
(§2) The above-described clinical studies were repeated with animals having colitis which was induced as described above. […] Two days after the enema the effects of the treatment were determined by measurement of body weight, blood gas analysis and biopsy. […] Surgery was performed to allow registration of the hemodynamic parameters at 1 h intervals for 6 h (cardiac output [CO] data were measured only at the end of the experiments). […] In addition, fluorescence confocal endomicroscopy was performed to examine the microvasculature and morphologic changes of the mucosa of the distal colon, and full-thickness tissue samples and venous blood samples were taken to determine the biochemical changes in the colon and plasma.

[3] = tested on: TNF-α; test: Plasma TNF-α level, rats with TNBS-induced colitis; conditions: 1.11 mmol/kg, vs untreated colitis group M, FIG. 30
Procedure: as §1
Plasma TNF-α concentrations were determined in duplicate by means of a commercially available enzyme-linked immunosorbent assay (Quantikine ultrasensitive enzyme-linked immunosorbent assay kit for rat TNF-α; Biomedica Hungaria Kft, Budapest, Hungary). […]
as §2

[4] = tested on: collagen-induced arthritis (CIA); test: Collagen-induced arthritis (CIA), thermal stimulation (inflammatory hyperalgesia); conditions: mice with CIA, 1.11 mmol/kg force-fed, vs untreated arthritis group 2, FIG. 37
Procedure: Further clinical studies were performed with animals having collagen-induced arthritis (CIA). In these studies, mice were used as test animals. At the age of eight weeks, the animals were immunized intradermally at the base of the tail with 50 μl of bovine collagen II emulsified in 50 μl of complete Freund's adjuvant. A second booster immunization was performed 3 weeks later, when 50 μl of incomplete Freund's adjuvant was administered with or without the same volume of collagen H. The animals were randomly allocated into experimental groups wherein group 1 served as control, having no arthritis, group 2 served as second control having arthritis, but receiving no further treatment, and group 3 having arthritis and being treated with compound according to the invention. The animals of group 3 were force-fed 1.11 mmol/kg body weight of the compound according to the invention from the first immunization until the end of the experiments. The severity of CIA was evaluated using a clinical scoring system; inflammatory hyperalgesia was detected with thermal stimulation.
The animals were acclimatized to the experimental conditions for 1 hour preceding the test. Then they were placed onto a heating plate set to 40° C. to assess their thermal hypersensitivity. […]

SMILES: CC(=O)Oc1ccccc1C(=O)O [ASS, acetylsalicylic acid, reference compound]
- nitrite/nitrate level in the blood [1]: increased nitrite/nitrate level

SMILES: CC(=O)Oc1ccccc1C(=O)NC(CO)(CO)CO [compound according to the invention]
- haematocrit level in the blood [2]: slightly higher
- plasma TNF-α level [3]: significant decrease in the TNF-α level
- thermosensitivity (thermal stimulation score, 40° C. heating plate) [4]: significantly lower thermosensitivity
